# Legend:
# NorA [1] = biological target: T1, NorA (Staphylococcus aureus, UniProt Q5HHX4); assay: Competitive MST peptide binding experiment (NPI-1 versus labelled Fab36); parameters: species or system S. aureus; conditions: NorA 6 μM, Fab36 40 nM, NPI-1 1.5 nM to 50 μM
# T1 construct: made in house; host or cells: C43 (DE3) E. coli
# Procedure: Competitive peptide binding experiments were performed with MST using fluorescently labelled Fab36 as described above. These experiments used fixed concentrations of NorA in PMAL-C8 amphipol at 6 μM and Fab36 at 40 nM, and a variable concentration of NPI-1 from 1.5 nM to 50 μM. Competitive peptide binding experiments were collected with three replicates.
# MRSA = format: cell-based, Staphylococcus aureus
# Procedure: To test the effects of peptides, overnight cultures of wild-type MRSA and MRSA^ΔnorA in TSB media were diluted 1:1,000 in TSB with varying concentrations of peptides, in the presence or the absence of norfloxacin (12.5 μg/ml). All the peptide concentrations contained equal amount of the DMSO vehicle. OD600nm was measured as a function of time in a BioScreen C device at 37° C. with shaking between measurements every 15 min. Three independent experiments were acquired; reported errors reflect the standard deviation among the independent experiments.
# NorA [2] = biological target: T1, NorA; assay: Fluorescence polarization (FP) binding of FITC-NPI-1 to NorA; parameters: species or system S. aureus
# Procedure: Amphipol-purified NorA underwent an additional round of SEC to remove free amphipol. Fluorescence polarization (FP) experiments were performed on a DTX 880 Multimode Detector (Beckman) at 25° C. with excitation and emission wavelengths set to 485 and 525 nm, respectively. For NorA binding assays, increasing concentrations of NorA were added to wells of 15 nM FITC-NPI-1 in 100 μL solutions of 20 mM Tris pH 7.5, 100 mM NaCl, 10% glycerol, 0.1% pluronic acid, and 1.2% DMSO on black, U-shape 96 well plates (BRANDplates). All samples were incubated for 15 min on a shaking plate. FP values as a function of NorA concentration ([L]) were fit using the following quadratic binding equation in GraphPad Prism to obtain the binding affinity (Kd) for FITC-NPI-1 ([P]T).
# Ymax and Yoffset are normalization parameters. The reported Kd value and error for FITC-NPI-1 reflects the average and standard deviation among seven independent experiments, each performed in triplicate.
# MRSA and MRSA^ΔnorA = assay: Bacteriostatic/bactericidal effect of norfloxacin on MRSA (CFU); format: cell-based, Staphylococcus aureus; conditions: norfloxacin 0, 12.5 or 25 μg/ml; 1, 2, 4 hr
# Procedure: MRSA or MRSA^ΔnorA were cultured overnight in 5 ml TSB and diluted 1:1,000 with TSB the next morning. In a round-bottom 96-well plate, 50 μl of the diluted culture was mixed with 50 μl of TSB supplemented with norfloxacin. The final concentration of MRSA or MRSA^ΔnorA was ˜1×10^6 CFU/ml and norfloxacin was 0, 12.5, or 25 μg/ml. The plate was incubated while shaking at 37° C. At 0 hr and after 1, 2, or 4 hr of incubation, CFUs of MRSA or MRSA^ΔnorA were enumerated by serially diluting in PBS and spot plating on TSA plates.
# NorA [3] = biological target: T1, NorA; assay: FP competition binding experiment with norfloxacin; parameters: species or system S. aureus; conditions: NorA 50 nM, FITC-NPI-1 15 nM, norfloxacin 10 nM and 2 mM
# Procedure: FP competition binding experiments with norfloxacin were performed using FITC-NPI-1 as described above. These experiments used a fixed concentration of NorA in PMAL-C8 amphipol at 50 nM and FITC-NPI-1 at 15 nM with norfloxacin concentrations of 10 nM and 2 mM in 100 μL solutions of 20 mM Tris pH 7.5, 100 mM NaCl, 10% glycerol, 0.1% pluronic acid, and 1.2% DMSO. A control experiment was performed in the same manner but in the absence of NorA. Four independent trials of FP experiments were performed, each in triplicate.
# MRSA^ΔnorA = assay: Norfloxacin MIC assays in MRSA (MIC test strips); format: cell-based, Staphylococcus aureus; conditions: MRSA^ΔnorA expressing wild-type NorA relative to MRSA^ΔnorA alone
# Procedure: Wild-type USA300 strain JE2 (“MRSA”) (Fey et al., “A Genetic Resource for Rapid and Comprehensive Phenotype Screening of Nonessential Staphylococcus aureus Genes,” Mbio 4:e00537-00512 (2013), which is hereby incorporated by reference in its entirety) and isogenic strains, norA::bursa (MRSA^ΔnorA) containing empty vector, or hemin-inducible NorA variants were grown overnight at 37° C. in TSB media supplemented with 10 μg/ml chloramphenicol and 1 μM hemin. The cultures were diluted to approximately 1×10^8 CFU/ml and evenly spread on TSA plates supplemented with 5 μg/ml chloramphenicol and 1 μM hemin. The norfloxacin MIC test strips (Liofilchem) were placed in the center of the plate and the plates were incubated for 24 hr at 37° C. The MIC values were read at the intersection of the inhibition eclipse and the strip. At least two independent MIC experiments were acquired for each sample; reported errors reflect the standard deviation among independent experiments.
# T1 sequence (Q5HHX4 whole entry): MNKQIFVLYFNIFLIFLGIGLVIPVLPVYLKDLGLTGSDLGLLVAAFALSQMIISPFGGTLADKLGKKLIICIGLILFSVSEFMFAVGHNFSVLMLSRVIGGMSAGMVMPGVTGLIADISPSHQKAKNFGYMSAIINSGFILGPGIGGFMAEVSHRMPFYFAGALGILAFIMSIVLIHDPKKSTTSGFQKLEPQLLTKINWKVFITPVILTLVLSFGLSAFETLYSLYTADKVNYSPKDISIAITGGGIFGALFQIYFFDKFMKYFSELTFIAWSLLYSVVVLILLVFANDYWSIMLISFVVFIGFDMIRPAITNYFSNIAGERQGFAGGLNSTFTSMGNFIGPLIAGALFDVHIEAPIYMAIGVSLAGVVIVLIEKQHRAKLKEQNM
Compound,displacement of bound Fab36 from NorA (NorA [1]),"IC50 (MRSA; in the presence of 12.5 μg/ml norfloxacin, 10 hr timepoint, read-out: IC50 growth inhibition of MRSA)","growth of MRSA in the absence of norfloxacin (MRSA; peptide alone, no norfloxacin)",Kd (NorA [2]),greater affinity to NorA (NorA [2]; NPI-1 relative to Fab36),effect on the growth of MRSA and MRSA^ΔnorA (MRSA and MRSA^ΔnorA),competition with NPI-1 binding to NorA (NorA [3]),greater norfloxacin MIC (MRSA^ΔnorA)
"H-YYYYAWRVGGYWR-NH2 [NPI-1, NH2-YYYYAWRVGGYWR-CONH2]",could displace bound Fab36 from NorA,720 ± 80 nM,did not inhibit the growth of MRSA,10 ± 5 nM,~14 fold,,,
CCn1cc(C(=O)O)c(=O)c2cc(F)c(N3CCNCC3)cc21 [norfloxacin],,,,,,bacteriostatic effect,compete with NPI-1 binding to NorA,20 fold
